Results: PubChem BioAssay (NCI)
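96-well plates; 48 h exposure; 5 concentrations. Endpoints by linear interpolation between flanking doses. Not reached: highest tested concentration assigned. The concentration for 50% growth inhibition is given as GI50. TGI: total growth inhibition.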

Tests used:
Assay in all cases: growth of human tumour cells (NCI), 48 h
HL-60(TB) leukemia = system: HL-60(TB) leukemia
KM12 colon = system: KM12 colon
NCI-H460 lung = system: NCI-H460 lung
OVCAR-3 ovarian = system: OVCAR-3 ovarian
SF-295 CNS = system: SF-295 CNS
SK-MEL-28 melanoma = system: SK-MEL-28 melanoma
TK-10 renal = system: TK-10 renal
U251 CNS = system: U251 CNS
UACC-257 melanoma = system: UACC-257 melanoma
UACC-62 melanoma = system: UACC-62 melanoma

| Structure (SMILES) | TGI (HL-60(TB) leukemia) [µM] | TGI (KM12 colon) [µM] | TGI (NCI-H460 lung) [µM] | TGI (OVCAR-3 ovarian) [µM] | TGI (SF-295 CNS) [µM] | TGI (SK-MEL-28 melanoma) [µM] | TGI (TK-10 renal) [µM] | TGI (U251 CNS) [µM] | TGI (UACC-257 melanoma) [µM] | TGI (UACC-62 melanoma) [µM] | GI50 (HL-60(TB) leukemia) [µM] | GI50 (KM12 colon) [µM] | GI50 (NCI-H460 lung) [µM] | GI50 (OVCAR-3 ovarian) [µM] | GI50 (SF-295 CNS) [µM] | GI50 (SK-MEL-28 melanoma) [µM] | GI50 (TK-10 renal) [µM] | GI50 (U251 CNS) [µM] | GI50 (UACC-257 melanoma) [µM] | GI50 (UACC-62 melanoma) [µM] |
| --- | --- | --- | --- | --- | --- | --- | --- | --- | --- | --- | --- | --- | --- | --- | --- | --- | --- | --- | --- | --- |
| Cc1cccc(C(O)c2cccnc2)c1O (stereo not given) | > 100 | > 100 | > 100 | > 100 | > 100 | > 100 | > 100 | > 100 | > 100 | > 100 | – | – | – | – | – | – | – | – | – | – |
| c1cc2ccc1CNCCN1CCNCc3ccc(cc3)Oc3ccc(cc3)CNCCN(CCNCc3ccc(cc3)O2)CCNCc2ccc(cc2)Oc2ccc(cc2)CNCC1 | 2.02 | 3.22 | 3.27 | 3.05 | 3.18 | 3.21 | 3.45 | 1.99 | 3.4 | 3.1 | 0.503 | 1.77 | 1.71 | 1.65 | 1.76 | 1.75 | 1.62 | 0.682 | 1.8 | 1.66 |
| COC(=O)[C@@H]1O[C@]12[C@@H](CO[Si](C)(C)C(C)(C)C)O[C@@H](n1cc(C)c(=O)[nH]c1=O)[C@@H]2O[Si](C)(C)C(C)(C)C | 5.47 | > 100 | > 100 | 31.1 | 49.7 | 38.5 | > 100 | 24.7 | 75.2 | 34.8 | – | – | – | – | – | – | – | – | – | – |
